Assay results reported in patent US11584744B2 (UNIVERSITY OF WASHINGTON, priority 2017, dated 2023).
≈ marks a conversion by molar mass, not a printed value. Where “and” joins values, the source holds several entries; their conditions need not be identical. Equal values may be shown once. Read-outs that look alike come from different tables or passages of the source.

Tests used:
[1] = Murine pharmacokinetics studies (oral, dried blood spots); type: in vivo, mice; conditions: 50 mg/kg single oral dose; for Cmax / AUC(0-t): mouse, whole blood (dried blood spots); for Cmax: po, 50 mg/kg, read-out: Mouse Oral PK DBS: Average Cmax; for AUC(0-t): read-out: Mouse Oral PK DBS: Average AUC(0-24 h) (converted)
Method: Murine pharmacokinetics studies. The methods were performed as previously described. Briefly, test compounds were administered to mice by oral gavage (3 mice per compound) followed by tail blood sampling at intervals of 30, 60, 120, 240, 360, 480, and 1440 min. Blood samples were analyzed by extracting dried blood spots in acetonitrile for measurements of compound concentrations by liquid chromatography/tandem mass spectrometry.
Pharmacokinetics studies: Selected compounds were administered to mice in single oral doses at 50 mg/kg and tail blood was sampled at time intervals out to 24 h to assess blood exposure (Table 9).

MetRS (C. parvum) = MetRS (C. parvum) (Cryptosporidium parvum, UniProt Q5CVN0); experiment: MetRS (C. parvum) enzyme inhibition; type: biochemical; conditions: read-out: (C) MetRS (C. parvum) IC50
Chain of MetRS (C. parvum) (Q5CVN0 entry or part of it): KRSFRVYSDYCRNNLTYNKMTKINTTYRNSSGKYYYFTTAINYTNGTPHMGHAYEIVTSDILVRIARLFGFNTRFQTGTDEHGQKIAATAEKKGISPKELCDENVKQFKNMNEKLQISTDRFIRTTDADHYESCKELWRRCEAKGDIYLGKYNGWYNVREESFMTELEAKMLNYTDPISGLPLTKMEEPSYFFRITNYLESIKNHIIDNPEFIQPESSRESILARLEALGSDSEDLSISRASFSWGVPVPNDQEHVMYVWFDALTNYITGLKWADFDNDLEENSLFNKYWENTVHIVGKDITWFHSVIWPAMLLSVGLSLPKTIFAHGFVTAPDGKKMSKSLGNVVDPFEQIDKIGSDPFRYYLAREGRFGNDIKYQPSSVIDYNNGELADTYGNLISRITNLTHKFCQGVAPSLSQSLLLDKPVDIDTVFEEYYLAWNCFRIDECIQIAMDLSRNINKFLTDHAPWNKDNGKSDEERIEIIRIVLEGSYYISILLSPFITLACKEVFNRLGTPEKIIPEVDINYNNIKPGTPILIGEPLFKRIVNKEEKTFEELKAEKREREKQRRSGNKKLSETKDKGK

S. aureus (ATCC 29213) [2] = experiment: Neutropenic murine S. aureus thigh infection model; type: in vivo, Staphylococcus aureus; conditions: 75 mg/kg orally ×2; for reduction of bacterial load below stasis level: neutropenic mouse
Source text: Murine thigh infection model. Animal studies were approved by the Institutional Animal Care and Use Committee at the University of Washington, Seattle. Female specific pathogen free CD1 mice were obtained from Charles River (Wilmington, Mass.) weighing 23-27 grams and allowed at least 3 days to acclimate prior to study. Mice had access to food and water ad libitum. Neutropenia was induced by administering cyclophosphamide monohydrate (Sigma Aldrich C7397; St. Louis, Mo.) via IP injection 4 days (at 150 mg/kg) and 1 day (at 100 mg/kg) prior to infection. Neutropenic status was confirmed by neutrophil count <100 cells/mm^3.
Overnight culture of S. aureus (ATCC strain 29213) was diluted 1:100 in MHB and incubated until reaching mid-log phase (OD600<0.750). The inoculum was prepared by pelleting log-phase culture and re-suspending in sterile dPBS. The culture was adjusted to OD600 of 0.200 and diluted 1:100 in sterile dPBS correlating to an inoculum of ˜5*10^5 CFU/50 μL. The mice were infected by an intramuscular injection of 50 μL in the right posterior thigh while under isoflurane gas anesthesia. At 1 h post infection, one vehicle group was sacrificed for determination of initial inoculum ([…] level of infection). Mice were dosed at 2 and 12 h post-infection with test compounds (below); they received a SC dose of 5 mg/kg ketoprofen at 2 h post-infection for pain management. Mice were sacrificed at 24 h post-infection; the thigh muscle was sterilely removed, weighed, homogenized in 5 mLs dPBS, serially diluted, plated on tryptic soy agar in duplicate, and incubated overnight at 37° C. Colonies were counted to quantify the bacterial load in CFUs per gram of thigh tissue.
Vancomycin was given at 100 mg/kg SC in 100 μL in a 0.9% saline solution. […] Test compounds were administered PO in 200 μL of vehicle containing 60% Phosal 53 MCT (Lipoid, Ludwigshafen Germany), 30% PEG400 (Sigma Aldrich, St. Louis, Mo.), and 10% EtOH (Decon Laboratories, King of Prussia, Pa.).
Efficacy studies in mice: Selected compounds were tested for in vivo efficacy in the neutropenic S. aureus thigh infection model (9). Mice were immunosuppressed with cyclophosphamide then infected in a thigh with 5×10^5 S. aureus (ATCC 29213). Compounds were dosed orally with 75 mg/kg at 2 and 12 h post-infection. At 24 h, thighs were harvested for CFU counts.

S. aureus (ATCC 29213) [3] = type: cell-based, Staphylococcus aureus; conditions: 8× the MIC; for Resistance frequency (Expt. 1) / Resistance frequency (Expt. 2): 72 h; for Resistance frequency (average or greater #): two independent experiments
Method: Resistance frequency rates determination: The spontaneous resistance frequency rates to test compounds was determined according to published methods. Agar selection plates were made by adding compound from DMSO stocks into molten Mueller Hinton agar in a 55° C. water bath. […] The final DMSO concentration was <0.1% per plate. Plates were dried in a sterile hood for 30 minutes prior to overnight storage at 4° C., and pre-warmed in the 37° C. incubator for 1 hour prior to assay.
A fresh overnight culture was diluted 1:50 in MHB and grown at 37° C. with shaking (150 rpm) until reaching an OD600 of 0.4 correlating to ˜2×10^9 CFUs/mL. Approximately 3 mL for a total of 6*10^9 CFUs were distributed onto 4 plates for each compound. Plates were incubated at 37° C. for 72 h prior to counting of colonies. The starting inoculum was also serially diluted and plated to quantify initial bacterial load. The resistance frequency was determined as the number of compound-resistant colonies divided by the total colonies plated.
Resistance frequency rates: The propensity for S. aureus to develop resistance to MetRS inhibitors was also studied (Table 6).

S. aureus (ATCC 29213) [4] = experiment: MBC determinations (with MIC); type: cell-based; conditions: Staphylococcus aureus, ATCC29213, S. aureus (ATCC 29213); for MIC: MBC experiment (Table 5), read-out: MIC; for MBC: concentration killing 99.9% of inoculum, read-out: MBC
Method: Maximum DMSO concentrations were 0.5%. […] Each experiment's inoculum was serially diluted and plated on TSA to count competent cells. Cultures were incubated at 37° C. for at least 20 h and plated on TSA for CFU determination.
MIC/MBC: Measurements of minimum bactericidal concentrations (MBCs) were done with the S. aureus strain ATCC 29213 (Table 5).

T. cruzi = T. cruzi growth inhibition; type: cell-based, Trypanosoma cruzi; conditions: read-out: (E) T. cruzi EC50
[5] = test system: E. coli MB4827 (wild-type); experiment: MIC against permeability strains of E. coli; type: cell-based; conditions: Escherichia coli, read-out: MIC MB4827 (wild-type)
Method: Bacterial strains. Strains with ATCC designations were either obtained directly from the American Type Culture Collection (Manassas, Va.) or were kindly provided by the University of Washington Clinical Microbiology laboratory. Escherichia coli permeability mutants (properties shown in Table 1) were provided as a gift from Dr. Katherine Young at Merck (Rahway, N.J.).
Susceptibility testing: Minimum inhibitory concentration (MIC) determinations were performed in triplicate in 96-well round bottom microtiter plates (Corning, Corning N.Y.) as described by the Clinical and Laboratory Standards Institute (CLSI). Serial two-fold dilutions of compounds were added to plates in 50 μL volumes. An additional 50 μL of media containing bacterial cells (1×10^6 CFUs/mL) was then added to each well. Maximum DMSO concentrations were 0.5%. Plates were incubated at 37° C. for at least 18 h before reading the susceptibility result by optical absorbance (OD600) using a BioTek ELx800. The lowest concentration causing ≥90% growth inhibition compared to the untreated control was recorded as the MIC (and also corresponded to the visual MIC). MICs were measured at least twice and the higher value (if different) was recorded herein.

C. parvum = C. parvum growth inhibition; type: cell-based, Cryptosporidium parvum; conditions: read-out: (J) C. parvum EC50

| Structure (SMILES) | Cmax [1] [ng/mL] | AUC(0-t) [1] [ng·h/mL] | IC50 (MetRS (C. parvum)) [nM] | efficacy in thigh infection model (S. aureus (ATCC 29213) [2]) | Resistance frequency (Expt. 1) (S. aureus (ATCC 29213) [3]) | Resistance frequency (Expt. 2) (S. aureus (ATCC 29213) [3]) | Resistance frequency (average or greater #) (S. aureus (ATCC 29213) [3]) | MIC (S. aureus (ATCC 29213) [4]) [µg/mL] | MBC (S. aureus (ATCC 29213) [4]) [µg/mL] | EC50 (T. cruzi; Trypanosoma cruzi) [nM] | EC50 (T. cruzi) | MIC [5] [µg/mL] | EC50 (C. parvum; Cryptosporidium parvum) [nM] | EC50 (C. parvum) [nM] | Mouse Oral PK DBS: Average Cmax [1] [ng/mL] | reduction of bacterial load below stasis level (S. aureus (ATCC 29213) [2]) |
| --- | --- | --- | --- | --- | --- | --- | --- | --- | --- | --- | --- | --- | --- | --- | --- | --- |
| CCn1c(Cc2ccc(OC)cc2Cl)cn(Cc2nc3nc(Cl)ccc3[nH]2)c1=O [Compound 2093, 1-({5-chloro-1H-imidazo[4,5-b]pyridin-2-yl}methyl)-4-[(2-chloro-4-methoxyphenyl)methyl]-3-ethyl-2,3-dihydro-1H-imidazol-2-one] | 7570 ± 2290 | 20400 | < 40 | weaker activity than the other MetRS inhibitors evaluated | 1.60 × 10^−8 | 2.58 × 10^−8 | 2.10 × 10^−8 | 0.078 (≈ 0.18 µM) | 1.25 (≈ 2.89 µM) | 8.28 | 5.81 nM | > 20 | 38 | 33 |  |  |
| CCn1c(Cc2ccc(OC)cc2Cl)cn(Cc2nc3nc(F)ccc3[nH]2)c1=O [Compound 2114, 4-[(2-chloro-4-methoxyphenyl)methyl]-3-ethyl-1-({5-fluoro-1H-imidazo[4,5-b]pyridin-2-yl}methyl)-2,3-dihydro-1H-imidazol-2-one] | 5450 ± 750 | 15000 | < 40 |  |  |  |  |  |  | 25.9 | 23.2 nM |  | 53 |  |  |  |
| CCn1c(Cc2ccc(Cl)cc2Cl)cn(Cc2nc3nc(F)ccc3[nH]2)c1=O [Compound 2062, 4-[(2,4-dichlorophenyl)methyl]-3-ethyl-1-({5-fluoro-1H-imidazo[4,5-b]pyridin-2-yl}methyl)-2,3-dihydro-1H-imidazol-2-one] |  |  | < 40 |  |  |  |  |  |  | 85.2 | 98.9 nM and 90.8 nM |  |  |  |  |  |
| COc1cc(Cl)c(-c2cccc3nc(Cc4nc5nc(Cl)ccc5[nH]4)cn23)cc1OC [Compound 2144, 2-({5-chloro-1H-imidazo[4,5-b]pyridin-2-yl}methyl)-5-(2-chloro-4,5-dimethoxyphenyl)imidazo[1,2-a]pyridine] | ~9000 | 63200 | 40.9 | significant reduction of bacterial load below the stasis level | 3.15 × 10^−9 | 2.45 × 10^−8 | 1.38 × 10^−8 | 0.01 (≈ 0.022 µM) | 0.313 (≈ 0.689 µM) | 13.5 | 7.79 nM | > 20 | > 2000 |  | 8950 ± 1380 | approximately 2 log |
| CC(=O)NC[C@H]1CN(c2ccc(N3CCOCC3)c(F)c2)C(=O)O1 [LNZ, linezolid] | 26500 ± 15200 | 94400 |  |  |  |  |  | 2.5 (≈ 7.41 µM) | 160 (≈ 474 µM) |  |  |  |  |  |  |  |
| Fc1ccc2nc(NCCCN[C@@H]3CCNc4c(Cl)cc(Cl)cc43)[nH]c2n1 [Compound 1717, (4R)-6,8-dichloro—N-[3-({5-fluoro-3H-imidazo[4,5-b]pyridin-2-yl}amino)propyl]-1,2,3,4-tetrahydroquinolin-4-amine, reference compound] | ~1500 | 15700 |  | significant reduction of bacterial load below the stasis level | 2.89 × 10^−9 | 5.43 × 10^−9 |  | 0.156 (≈ 0.381 µM) | 5 (≈ 12.2 µM) |  |  | > 20 |  |  |  | approximately 2 log |
